Measurements: PMC9916658, “Design and Synthesis of New Quinazolin-4-one Derivatives with Negative mGlu7 Receptor Modulation Activity and Antipsychotic-Like Properties” (International Journal of Molecular Sciences, 2023)
Converted amounts (≈) assume the structure as drawn. Like-named read-outs stand apart in the source and are kept apart here.

Assays:
[1] = target: T1, recombinant human mGlu7 receptor (FAST-0154C) (Homo sapiens, UniProt Q14831); test: NAM mGlu7 activity on CHO-K1 cell line, cAMP HTRF (EuroscreenFast protocol); format: cell-based; conditions: CHO-K1 human mGlu7, agonist L-AP4 at EC80
T1 construct: host or cells: CHO-K1
Description: with inducible expression of human mGlu7 receptor. […]
2.2. NAM mGlu7 receptor activity on CHO-K1 cell line according to EuroscreenFast protocol
ALX-065 and ALX-171 were testing for negative allosteric modulator (NAM) activity on alternative […]
mGlu7 cell line (recombinant human mGlu7 receptor (FAST-0154C) using cAMP HTRF functional assay) […]
by EuroscreenFast company according to the provided methodology.
Receptor Accession Cell line Reference Reference
Number agonist antagonist
Compounds were tested for NAM activity at the human mGlu7 receptor (FAST-0154C) in dose […]
response and in duplicates (range concentration: 1 nM – 25 µM) […]
cAMP HTRF assay for Gi coupled receptor
CHO-K1 cells expressing recombinant human mGlu7 receptor (FAST-0154C) grown prior to the test […]
inmedia without antibiotic are detached by gentle flushing with PBS-EDTA (5 mM EDTA), recovered […]
by centrifugation and resuspended in assay buffer (KRH: 5 mM KCl, 1.25 mM MgSO4, 124 mM NaCl, […]
25 mM HEPES, 13.3 mM Glucose, 1.25 mM KH2PO4, 1.45 mM CaCl2, 0.5 g/L BSA, supplemented with 1 […]
Dose response curves are performed in parallel with the reference compounds.
For antagonist/NAM test (96 well): 12 µl of cells are mixed with 6 µl of the test compound at increasing concentrations and then incubated 10 min. Thereafter 6 µl of the mix of the forskolin and reference agonist is added at a final concentration corresponding to the historical EC80. The plates are then incubated for 30 min at room temperature. After addition of the lysis buffer and 1 hour incubation, cAMP concentrations are estimated, according to the manufacturer specification, with the HTRF kit. […]

[2] = Pharmacokinetics and brain uptake in mice after i.p. administration; format: in vivo, mouse (Albino Swiss); conditions: mouse Albino Swiss, 10 mg/kg i.p.; for AUC(0-t): ip
Method: Compounds were administered to mice at a dose of 10 mg/kg i.p. Plasma and tissue samples were collected at 0.25, 0.50, 1.0, 2.0, 4.0, 6.0, and 24 h. Plasma and tissue samples from all drug-treated animals were thawed at room temperature prior to use. The standard protocol for sample preparation was used: 200 μL of acetonitrile was added to the Eppendorf tubes with 50 μL of studied plasma samples or tissue homogenate. Samples were mixed for 5 min on a mixer at 25 °C and 1400 rpm. The tubes were then centrifuged at 2000× g for 15 min at 4 °C. A total of 180 μL of each supernatant was transferred to a plate well. Finally, each sample was injected into the LC–MS column. Calibration curve serial dilution method: Plasma was spiked with a standard at different concentrations. Acetonitrile was added. After mixing and centrifugation, the supernatant was collected.
Chromatographic conditions. Plasma and tissue samples from all drug-treated animals at selected time points were analyzed using a previously developed nonvalidated LC–MS/MS method. […] The LC–MS analysis was carried out on a Bruker amaZon SL mass spectrometer using the positive/negative ion ESI mode. Chromatographic separation was achieved on an Ascentis Express C18 column (5 cm × 2.1 mm, 2.7 μM, Supelco Technologies) at room temperature with a thermostatted column oven. A gradient elution of eluents A (acetonitrile (LiChrosolv, Reag. Ph Eur) + 0.1% formic acid (Sigma Aldrich, 98–100%)) and B (water + 0.1% formic acid) were used for separation. The flow rate was set at 1 mL/min. The injection volume was 20 μL, and the time of injection was 4 min.
Mass spectrometric conditions. An ion trap mass spectrometer (Bruker amaZon SL, Bruker, Bremen, Germany) was equipped with an electrospray source operating in the positive/negative ion mode. Data were collected and processed using Bruker Quant Analysis (Bruker, Bremen, Germany) software. A quantification of the analytes was performed in the SIM mode.

[3] = Kinetic solubility assay in HBSS buffer; format: physicochemical; conditions: aqueous buffer, kinetic from dmso stock; Hanks-HEPES (HBSS buffer), pH 7.4; read-out: KS (kinetic solubility)
Method: The kinetic solubility assay was performed to determine the solubility of the compounds in the in vitro assay conditions. The assay investigated the solubility based on the precipitation process in the HBSS buffer. For the preparation of the assay buffer, the following compounds were dissolved in 800 mL purified water: • − 130 mM sodium chloride, NaCl (7.600 g); • − 5.4 mM potassium chloride, KCl (0.403 g); • − 0.8 mM magnesium sulfate, MgSO4 × 7H2O (0.197 g); • − 0.9 mM sodium phosphate monobasic, NaH2PO4 × 2H2O (0.140 g); • − 25 mM D-glucose (4.500 g); • − 20 mM HEPES sodium salt (5.210 g).
The buffer was adjusted to pH 7.4, and the following compound was added to the mixture: • − 1.8 mM calcium chloride, CaCl2 × 2H2O (0.265 g).
The total volume was adjusted to 1000 mL.
The investigated compounds were diluted (in triplicate) with the HBSS buffer at pH 7.4 to a final concentration of 500 μM.
The mixture was shaken on a filter plate at 500 rpm for 1.5 h at RT. After incubation, the filter plate was placed inside a vacuum manifold and filtrated. Samples were collected and the concentration of the filtrate was determined spectrophotometrically by measuring the UV–VIS absorption spectrum. Concentrations were calculated based on equations resulting from the calibration curves (in duplicates, 8 calibration points, dilution Factor ×2, 500 µM → 3.91 µM, including blank sample).

[4] = Metabolic stability in mouse microsomal fraction; format: in vitro ADME; conditions: 1 µM, mouse microsomes 0.3 mg/mL, NADPH-regenerating system
Method: A metabolic stability assay was performed using a mouse microsomal fraction (phase I of metabolism) obtained from XenoTech (Kansas City, MO, USA). Compounds for metabolic stability testing were prepared as 10 mM stock solutions in DMSO. Compounds were incubated in triplicate at a 1 µM initial concentration with the microsomal fraction in the presence of NRS (NADPH-regenerating system, 1.3 mM). The final microsomal incubation (0.3 mg/mL) contained the components mentioned below in a pH 7.4 phosphate buffer. Control incubations were conducted without cofactors. The reference compound verapamil was used as a positive control. Incubations were carried out for 1 h on 96-well plates using a heated (+37 °C) orbital shaker (350 rpm). After incubation, the reaction was quenched through the addition of cold acetonitrile. The plate containing the samples was centrifuged at 2000 rpm for 15 min at 4 °C. The supernatants were analyzed using LC–MS.
The HPLC–MS consisted of a Dionex, Ultimate 3000 HPLC, and a Bruker Daltonics amaZon SL mass spectrometer (ESI-IT). The conditions were as follows: Column HPLC Ascentis Express C18 (5 cm × 2.1 mm, 2.7 µm) and an injection volume of 20 µL. An acetonitrile gradient was used with 0.1% formic acid in water at a constant flow rate of 1 mL/min. The programming was as follows: 0–0.5 min 5% ACN, 0.5–3.0 increase of 5–95%, 3.0–3.3 remaining at 95% ACN, 3.3–3.4 min decrease of 95–5% ACN, and 3.4–4.0 min 5% ACN. Samples were analyzed in a single-ion monitoring scan mode in positive mode. The conditions of the main parameters were as follows: a trap drive of 48.2, capillary exit voltage of 140.0 V, dry temperature (set) of 300 °C, nebulizer pressure (set) of 40.00 psi, dry gas flow (set) of 9.00 L/min HV capillary voltage of −4500 V, HV end-plate offset voltage of −500 V.
The percent loss of compounds was calculated through the normalization of the peak area against time 0, where the peak area at T0 was 100%. The elimination rate constant (h) was determined from the plot of ln (percent loss of compound) as a time function and equal to the minor value of the linear curve slope.

[5] = system: animal models of schizophrenia; conditions: cited from earlier work

T1 sequence (Q14831 35-915): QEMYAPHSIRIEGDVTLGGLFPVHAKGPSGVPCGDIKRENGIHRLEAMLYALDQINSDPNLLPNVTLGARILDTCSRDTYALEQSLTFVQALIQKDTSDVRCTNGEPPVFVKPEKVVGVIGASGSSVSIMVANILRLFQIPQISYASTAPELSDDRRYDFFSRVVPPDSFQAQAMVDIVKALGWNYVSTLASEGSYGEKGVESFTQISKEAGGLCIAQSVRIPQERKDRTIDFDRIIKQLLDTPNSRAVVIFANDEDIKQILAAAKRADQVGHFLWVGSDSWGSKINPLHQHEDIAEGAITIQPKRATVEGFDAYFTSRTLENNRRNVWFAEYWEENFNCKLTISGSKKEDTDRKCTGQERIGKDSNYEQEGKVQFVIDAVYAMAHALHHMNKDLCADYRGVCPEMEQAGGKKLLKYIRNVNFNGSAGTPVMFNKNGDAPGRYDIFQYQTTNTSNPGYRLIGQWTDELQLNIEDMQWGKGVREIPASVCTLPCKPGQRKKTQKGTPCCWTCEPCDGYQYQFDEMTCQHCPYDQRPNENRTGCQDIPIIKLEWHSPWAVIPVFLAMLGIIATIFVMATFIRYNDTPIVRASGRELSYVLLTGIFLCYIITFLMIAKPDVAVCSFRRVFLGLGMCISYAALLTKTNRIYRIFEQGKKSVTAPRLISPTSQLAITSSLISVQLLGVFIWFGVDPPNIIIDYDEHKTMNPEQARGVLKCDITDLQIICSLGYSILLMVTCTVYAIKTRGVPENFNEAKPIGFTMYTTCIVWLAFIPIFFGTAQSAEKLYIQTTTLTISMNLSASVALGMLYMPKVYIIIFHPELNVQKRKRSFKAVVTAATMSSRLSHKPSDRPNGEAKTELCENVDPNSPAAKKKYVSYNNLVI

- % inhibition at maximal concentration ([1]; range 1 nM – 25 µM): 100%
- IC50 ([1]; read-out: IC50 (CHO-K1, Figure S4)): 270 nM
- AUC(0-t) ([2]; brain, read-out: AUC0-t, brain): 8.98 µM·h
- AUC(0-t) ([2]; plasma, read-out: AUC0-t, plasma): 13.5 µM·h
- Cmax, brain ([2]; brain): 5.42 µM/L
- Tmax, plasma ([2]; plasma): 15 min
- solubility kinetic at 1.5 h [3]: 5.6 µM (≈ 1.87 µg/mL)
- MML (metabolic stability liver microsome mouse) [4]: 49.78 % remaining after 60 min
SMILES: COc1ccc(-c2cc3onc(-c4ccncc4)c3c(=O)n2C)cc1 [MMPIP, reference compound]
- MK-801-induced disruptions in social interaction [5]: not observed
- prepulse inhibition (PPI) [5]: not observed
- activity in animal models of schizophrenia ([5]; mGlu7 NAMs): antipsychotic activity
